Laboratory results taken from patent US5612329A (priority 1995, dated 1997).

Tests used:
K-562 cells = assay: In vitro cytotoxicity / cell growth inhibition, leukemia; assay type: cell-based; settings: Homo sapiens, K562; K-562, leukemia, 48 hr; read-out: log10 G150 (converted)
Method: (§1) The anti-proliferative activities of the aziridinylpolyamines obtained in Synthesis Examples 1-4 were assessed by determining log10 G150 values against human cancer cell lines using the screening strategy described by Boyd et al, Drug Devel. Res. 34:91-109 (1995).
(§2) More specifically, the compounds were tested at a minimum of five concentrations at 10-fold dilutions using a 48 hr continuous exposure protocol. Each cell line shown in Table 1 below was inoculated onto microtiter plates. After a pre-incubation period of 24-48 hr at 37° C., the test compounds were added, and the culture was incubated for an additional 48 hr at 37° C. Cell viability or cell growth end-point determinations were performed by fixation of the cells, followed by staining with sulforhodamine B (Monks et al, J. Natl. Cancer Inst., 83:757-766 (1991)).

MOLT-4 cells = assay: as above; assay type: cell-based; settings: Homo sapiens; MOLT-4, leukemia, 48 hr; read-out: log10 G150 (converted)
Method: as §1, §2

SR cells = assay: as above; assay type: cell-based; settings: Homo sapiens, 48 hr, read-out: log10 G150 (converted)
Method: as §1, §2

RPMI-8226 cells = assay: as above; assay type: cell-based; settings: Homo sapiens; RPMI-8226, leukemia, 48 hr; read-out: log10 G150 (converted)
Method: as §1, §2

CCRF-CEN cells = assay: as above; assay type: cell-based; settings: Homo sapiens, 48 hr, read-out: log10 G150 (converted)
Method: as §1, §2

ACHN cells = assay: In vitro cytotoxicity / cell growth inhibition, renal cancer; assay type: cell-based; settings: Homo sapiens, 48 hr, read-out: log10 G150 (converted)
Method: as §1, §2

A498 cells = assay: as above; assay type: cell-based; settings: Homo sapiens, 48 hr, read-out: log10 G150 (converted)
Method: as §1, §2

786-0 cells = assay: as above; assay type: cell-based; settings: Homo sapiens; 786-0, renal cancer, 48 hr; read-out: log10 G150 (converted)
Method: as §1, §2

CAKI-1 cells = assay: as above; assay type: cell-based; settings: Homo sapiens; CAKI-1, renal cancer, 48 hr; read-out: log10 G150 (converted)
Method: as §1, §2

UO-31 cells = assay: as above; assay type: cell-based; settings: Homo sapiens; UO-31, renal cancer, 48 hr; read-out: log10 G150 (converted)
Method: as §1, §2

TK-10 cells = assay: as above; assay type: cell-based; settings: Homo sapiens; TK-10, renal cancer, 48 hr; read-out: log10 G150 (converted)
Method: as §1, §2

SN12C cells = assay: as above; assay type: cell-based; settings: Homo sapiens, 48 hr, read-out: log10 G150 (converted)
Method: as §1, §2

RXF-393 cells = assay: as above; assay type: cell-based; settings: Homo sapiens; RXF-393, renal cancer, 48 hr; read-out: log10 G150 (converted)
Method: as §1, §2

SF-268 cells = assay: In vitro cytotoxicity / cell growth inhibition, CNS cancer; assay type: cell-based; settings: Homo sapiens; SF-268, CNS cancer, 48 hr; read-out: log10 G150 (converted)
Method: as §1, §2

U251 cells = assay: as above; assay type: cell-based; settings: Homo sapiens, U-251, 48 hr, read-out: log10 G150 (converted)
Method: as §1, §2

SF-295 cells = assay: as above; assay type: cell-based; settings: Homo sapiens; SF-295, CNS cancer, 48 hr; read-out: log10 G150 (converted)
Method: as §1, §2

SNB-75 cells = assay: as above; assay type: cell-based; settings: Homo sapiens; SNB-75, CNS cancer, 48 hr; read-out: log10 G150 (converted)
Method: as §1, §2

SF-539 cells = assay: as above; assay type: cell-based; settings: Homo sapiens; SF-539, CNS cancer, 48 hr; read-out: log10 G150 (converted)
Method: as §1, §2

SNB-19 cells = assay: as above; assay type: cell-based; settings: Homo sapiens; SNB-19, CNS cancer, 48 hr; read-out: log10 G150 (converted)
Method: as §1, §2

pBR322 DNA = assay type: biochemical; settings: 37° C., 18 hr, pH 7.4

Compound: C(CCNCCCN1CC1)CNCCCN1CC1 [Synthesis Example 1, 1,12-Diaziridinyl-4,9-diazadodecane]
- GI50 (K-562 cells): 4370 nM
- GI50 (MOLT-4 cells): 44.7 nM
- GI50 (SR cells): 18.2 nM
- GI50 (RPMI-8226 cells): 5130 nM
- GI50 (CCRF-CEN cells): 63.1 nM
- GI50 (ACHN cells): 141 nM
- GI50 (A498 cells): 1820 nM
- GI50 (786-0 cells): 11.2 nM
- GI50 (CAKI-1 cells): 18.6 nM
- GI50 (UO-31 cells): 575 nM
- GI50 (TK-10 cells): 3240 nM
- GI50 (SN12C cells): 135 nM
- GI50 (RXF-393 cells): 138 nM
- GI50 (SF-268 cells): 148 nM
- GI50 (U251 cells): 417 nM
- GI50 (SF-295 cells): 155 nM
- GI50 (SNB-75 cells): 27.5 nM
- GI50 (SF-539 cells): 37.2 nM
- GI50 (SNB-19 cells): 1120 nM
- concentration at which DNA was found to be cross-linked (pBR322 DNA): ≤ 0.1 µM
